Legend:
[1] = target: human orexin-2 receptor (Homo sapiens (Human), UniProt O43614); test: FLIPR Ca2+ Flux Assay, CHO cells expressing orexin-2 receptor; assay type: cell-based; details: 70 pM Ala-6,12 orexin-A agonist, read-out: hOX2R FLIPR IC50
Description: The utility of the compounds in accordance with the present invention as orexin receptor OX1R and/or OX2R antagonists may be readily determined without undue experimentation by methodology well known in the art, including the “FLIPR Ca^2+ Flux Assay” (Okumura et al., Biochem. Biophys. Res. Comm. 280:976-981, 2001). In a typical experiment the OX1 and OX2 receptor antagonistic activity of the compounds of the present invention was determined in accordance with the following experimental method. For intracellular calcium measurements, Chinese hamster ovary (CHO) cells expressing the rat orexin-1 receptor or the human orexin-2 receptor, are grown in Iscove's modified DMEM containing 2 mM L-glutamine, […], 1% hypoxanthine-thymidine supplement, 100 U/ml penicillin, 100 μg/ml streptomycin and 10% heat-inactivated fetal calf serum (FCS). The cells are seeded at 20,000 cells/well into Becton-Dickinson black 384-well clear bottom sterile plates coated with poly-D-lysine. All reagents were from GIBCO-Invitrogen Corp. The seeded plates are incubated overnight at 37° C. and 5% CO2. Ala-6,12 human orexin-A as the agonist is prepared as a 1 mM stock solution in 1% bovine serum albumin (BSA) and diluted in assay buffer (HBSS containing 20 mM HEPES, 0.1% BSA and 2.5 mM probenecid, pH7.4) for use in the assay at a final concentration of 70 pM. Test compounds are prepared as 10 mM stock solution in DMSO, then diluted in 384-well plates, first in DMSO, then assay buffer. On the day of the assay, cells are washed 3 times with 100 μl assay buffer and then incubated for 60 min (37° C., 5% CO2) in 60 μl assay buffer containing 1 μM Fluo-4AM ester, 0.02% pluronic acid, and 1% BSA. The dye loading solution is then aspirated and cells are washed 3 times with 100 μl assay buffer. 30 μl of that same buffer is left in each well. Within the Fluorescent Imaging Plate Reader (FLIPR, Molecular Devices), test compounds are added to the plate in a volume of 25 μl, incubated for 5 min and finally 25 μl of agonist is added. Fluorescence is measured for each well at 1 second intervals for 5 minutes and the height of each fluorescence peak is compared to the height of the fluorescence peak induced by 70 pM Ala-6,12 orexin-A with buffer in place of antagonist. For each antagonist, IC50 value (the concentration of compound needed to inhibit 50% of the agonist response) is determined. Alternatively, compound potency can be assessed by a radioligand binding assay (described in Bergman et. al. Bioorg. Med. Chem. Lett. 2008, 18, 1425-1430) in which the inhibition constant (Ki) is determined in membranes prepared from CHO cells expressing either the OX1 or OX2 receptor. The intrinsic orexin receptor antagonist activity of a compound which may be used in the present invention may be determined by these assays.

[2] = target: hOX1R (Homo sapiens, UniProt O43613); test: FLIPR Ca2+ Flux Assay, CHO cells expressing orexin-1 receptor; assay type: cell-based; details: 70 pM Ala-6,12 orexin-A agonist

Sequence of human orexin-2 receptor (O43614 whole entry): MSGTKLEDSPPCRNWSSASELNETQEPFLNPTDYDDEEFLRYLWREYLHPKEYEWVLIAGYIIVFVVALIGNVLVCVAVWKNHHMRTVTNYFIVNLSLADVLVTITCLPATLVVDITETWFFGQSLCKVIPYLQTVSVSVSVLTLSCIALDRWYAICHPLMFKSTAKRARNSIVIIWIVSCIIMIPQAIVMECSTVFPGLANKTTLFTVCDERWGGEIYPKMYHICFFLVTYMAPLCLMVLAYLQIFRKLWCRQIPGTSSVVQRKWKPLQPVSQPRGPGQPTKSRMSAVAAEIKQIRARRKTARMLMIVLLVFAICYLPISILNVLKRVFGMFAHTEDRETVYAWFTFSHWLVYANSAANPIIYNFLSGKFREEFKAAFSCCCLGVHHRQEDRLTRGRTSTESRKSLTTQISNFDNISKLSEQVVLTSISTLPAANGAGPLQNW

Row | Structure (SMILES) | IC50 [1] [nM] | IC50 [2] [nM]
1 | C[C@@H]1CC[C@@H](Oc2nccc3c2C(=O)OC3(C)C)CN1C(=O)c1ccccc1-n1nccn1 [Example 1, 1,1-Dimethyl-4-{[(3R,6R)-6-methyl-1-{[2-(2H-1,2,3-triazol-2-yl)phenyl]carbonyl}piperidin-3-yl]oxy}furo[3,4-c]pyridin-3(1H)-one] | 20 | 8290
2 | C[C@@H]1CC[C@@H](Oc2nccc3c2C(=O)OC3(C)C)CN1C(=O)c1c(F)cccc1-n1nccn1 [Example 2, 4-{[(3R,6R)-1-{[2-Fluoro-6-(2H-1,2,3-triazol-2-yl)phenyl]carbonyl}-6-methylpiperidin-3-yl]oxy}-1,1-dimethylfuro[3,4-c]pyridin-3(1H)-one] | 44 | 10000
3 | C[C@@H]1CC[C@@H](Oc2nccc3c2C(=O)OC3(C)C)CN1C(=O)c1cc(Cl)ccc1-n1nccn1 [Example 3, 4-{[(3R,6R)-1-{[5-chloro-2-(2H-1,2,3-triazol-2-yl)phenyl]carbonyl}-6-methylpiperidin-3-yl]oxy}-1,1-dimethylfuro[3,4-c]pyridin-3(1H)-one] | 42 | 3740
4 | C[C@@H]1CC[C@@H](Oc2nccc3c2C(=O)OC3(C)C)CN1C(=O)c1cc(F)ccc1-n1nccn1 [Example 4, 4-{[(3R,6R)-1-{[5-fluoro-2-(2H-1,2,3-triazol-2-yl)phenyl]carbonyl}-6-methylpiperidin-3-yl]oxy}-1,1-dimethylfuro[3,4-c]pyridin-3(1H)-one] | 23 | 10000
5 | Cc1ccc(-n2nccn2)c(C(=O)N2C[C@H](Oc3nccc4c3C(=O)OC4(C)C)CC[C@H]2C)c1 [Example 5, 1,1-dimethyl-4-{[(3R,6R)-6-methyl-1-{[5-methyl-2-(2H-1,2,3-triazol-2-yl)phenyl]carbonyl}piperidin-3-yl]oxy}furo[3,4-c]pyridin-3(1H)-one] | 54 | 2510
6 | C[C@@H]1CC[C@@H](Oc2nccc3c2C(=O)OC3(C)C)CN1C(=O)c1c(F)cccc1-n1nccn1 [Example 6, 4-(((3R,6R)-1-(2-fluoro-6-(2H-1,2,3-triazol-2-yl)benzoyl)-6-methylpiperidin-3-yl)oxy)-1,1-dimethylfuro[3,4-c]pyridin-3(1H)-one] | 13 | 2710
7 | C[C@@H]1CC[C@@H](Oc2nccc3c2C(=O)OC3(C)C)CN1C(=O)c1cccc(F)c1-n1nccn1 [Example 7, 4-{[(3R,6R)-1-{[3-fluoro-2-(2H-1,2,3-triazol-2-yl)phenyl]carbonyl}-6-methylpiperidin-3-yl]oxy}-1,1-dimethylfuro[3,4-c]pyridin-3(1H)-one] | 132 | 10000
8 | Cc1cccc(C(=O)N2C[C@H](Oc3nccc4c3C(=O)OC4(C)C)CC[C@H]2C)c1-n1nccn1 [Example 8, 1,1-dimethyl-4-{[(3R,6R)-6-methyl-1-{[3-methyl-2-(2H-1,2,3-triazol-2-yl)phenyl]carbonyl}piperidin-3-yl]oxy}furo[3,4-c]pyridin-3(1H)-one] | 43 | 3090
9 | C[C@@H]1CC[C@@H](Oc2nccc3c2C(=O)OC3(C)C)CN1C(=O)c1ccc(Cl)cc1-n1nccn1 [Example 9, 4-{[(3R,6R)-1-{[4-chloro-2-(2H-1,2,3-triazol-2-yl)phenyl]carbonyl}-6-methylpiperidin-3-yl]oxy}-1,1-dimethylfuro[3,4-c]pyridin-3(1H)-one] | 54 | 3740
10 | C[C@@H]1CC[C@@H](Oc2nccc3c2C(=O)OC3(C)C)CN1C(=O)c1ccc(F)cc1-n1nccn1 [Example 10, 4-{[(3R,6R)-1-{[4-fluoro-2-(2H-1,2,3-triazol-2-yl)phenyl]carbonyl}-6-methylpiperidin-3-yl]oxy}-1,1-dimethylfuro[3,4-c]pyridin-3(1H)-one] | 59 | 10000
11 | COc1ccc(C(=O)N2C[C@H](Oc3nccc4c3C(=O)OC4(C)C)CC[C@H]2C)c(-n2nccn2)c1 [Example 11, 4-{[(3R,6R)-1-{[4-methoxy-2-(2H-1,2,3-triazol-2-yl)phenyl]carbonyl}-6-methylpiperidin-3-yl]oxy}-1,1-dimethylfuro[3,4-c]pyridin-3(1H)-one] | 147 | 10000
12 | COc1ccc(C(=O)N2C[C@H](Oc3nccc4c3C(=O)OC4(C)C)CC[C@H]2C)c(-n2nccn2)n1 [Example 12, 4-{[(3R,6R)-1-{[6-methoxy-2-(2H-1,2,3-triazol-2-yl)pyridin-3-yl]carbonyl}-6-methylpiperidin-3-yl]oxy}-1,1-dimethylfuro[3,4-c]pyridin-3(1H)-one] | 195 | 10000
13 | Cc1nc(-c2cccc(F)c2C(=O)N2C[C@H](Oc3nccc4c3C(=O)OC4(C)C)CC[C@H]2C)no1 [Example 13, 4-{[(3R,6R)-1-{[2-fluoro-6-(5-methyl-1,2,4-oxadiazol-3-yl)phenyl]carbonyl}-6-methylpiperidin-3-yl]oxy}-1,1-dimethylfuro[3,4-c]pyridin-3(1H)-one] | 65 | ≥ 10000
14 | Cc1nc(-c2ccc(F)cc2C(=O)N2C[C@H](Oc3nccc4c3C(=O)OC4(C)C)CC[C@H]2C)no1 [Example 14, 4-{[(3R,6R)-1-{[5-fluoro-2-(5-methyl-1,2,4-oxadiazol-3-yl)phenyl]carbonyl}-6-methylpiperidin-3-yl]oxy}-1,1-dimethylfuro[3,4-c]pyridin-3(1H)-one] | 76 | 10000
15 | Cc1nc(-c2cc(F)ccc2C(=O)N2C[C@H](Oc3nccc4c3C(=O)OC4(C)C)CC[C@H]2C)no1 [Example 15, 4-{[(3R,6R)-1-{[4-fluoro-2-(5-methyl-1,2,4-oxadiazol-3-yl)phenyl]carbonyl}-6-methylpiperidin-3-yl]oxy}-1,1-dimethylfuro[3,4-c]pyridin-3(1H)-one] | 232 | 10000
16 | Cc1nc(-c2c(F)cccc2C(=O)N2C[C@H](Oc3nccc4c3C(=O)OC4(C)C)CC[C@H]2C)no1 [Example 16, 4-{[(3R,6R)-1-{[3-fluoro-2-(5-methyl-1,2,4-oxadiazol-3-yl)phenyl]carbonyl}-6-methylpiperidin-3-yl]oxy}-1,1-dimethylfuro[3,4-c]pyridin-3(1H)-one] | 90 | 10000
17 | Cc1noc(-c2cccc(F)c2C(=O)N2C[C@H](Oc3nccc4c3C(=O)OC4(C)C)CC[C@H]2C)n1 [Example 17, 4-{[(3R,6R)-1-{[2-fluoro-6-(3-methyl-1,2,4-oxadiazol-5-yl)phenyl]carbonyl}-6-methylpiperidin-3-yl]oxy}-1,1-dimethylfuro[3,4-c]pyridin-3(1H)-one] | 102 | 10000
18 | Cc1noc(-c2ccc(F)cc2C(=O)N2C[C@H](Oc3nccc4c3C(=O)OC4(C)C)CC[C@H]2C)n1 [Example 18, 4-{[(3R,6R)-1-{[5-fluoro-2-(3-methyl-1,2,4-oxadiazol-5-yl)phenyl]carbonyl}-6-methylpiperidin-3-yl]oxy}-1,1-dimethylfuro[3,4-c]pyridin-3(1H)-one] | 90 | 10000
19 | Cc1noc(-c2cc(F)ccc2C(=O)N2C[C@H](Oc3nccc4c3C(=O)OC4(C)C)CC[C@H]2C)n1 [Example 19, 4-{[(3R,6R)-1-{[4-fluoro-2-(3-methyl-1,2,4-oxadiazol-5-yl)phenyl]carbonyl}-6-methylpiperidin-3-yl]oxy}-1,1-dimethylfuro[3,4-c]pyridin-3(1H)-one] | 382 | 10000

Source: patent US9556190B2, “Piperidinyloxy lactone orexin receptor antagonists” (MERCK SHARP & DOHME CORP., priority 2013, dated 2017)
